The values below come from publication PMC9804084, “Multiple drug transporters contribute to the brain transfer of levofloxacin” (CNS Neuroscience & Therapeutics, 2022).

This series in a line: Stability of LVFX in QC samples (dialysate solvents) under storage conditions. The class given is physicochemical. The settings on record: for Calculated concentration (mean ± SD): n=3. As for the experimental part: Using artificial cerebrospinal fluid (ACSF) and Ringer's solution as solvents, the LVFX concentration required for calibration and quality control (QC) samples was obtained by appropriate step‐by‐step dilution. A calibration curve was constructed using the relationship between the analyte peak area and analyte concentration obtained in the range of 0.01–30 μg/ml. Linearity was assessed by a weighted (1/x ^2) least squares regression analysis. The accuracy and precision of the method were evaluated by QC samples of high, medium, and low concentrations. Quantification of the concentration of QC samples was conducted three times on the same day to evaluate the intra‐day precision and accuracy. The same procedure was employed for 3 consecutive days to evaluate the inter‐day precision and accuracy of this method. The relative error (RE%) and relative standard deviation (RSD%) were used to evaluate the accuracy and precision, respectively. We evaluated the stability of LVFX in dialysates under short‐term (6 h) room temperature, low temperature (4°C), and freeze–thaw conditions (three cycles).

Consider `C[C@H]1COc2c(N3CCN(C)CC3)c(F)cc3c(=O)c(C(=O)O)cn1c23` [LVFX, Levofloxacin], for which, where the note is “QC samples, room temp 6 h, 4°C, freeze–thaw 3 cycles”, the “stability under storage conditions employed” value is given as “stable”. Also, under “all storage conditions (Table 2)”, the “maximum deviation in stability test of QC samples” value is given as 4.71%. Besides, the “Calculated concentration (mean ± SD)” value (freeze–thaw (3 cycles), nominal concentration 0.3 μg/ml) is 0.289 ± 0.008 µg/mL; the “Calculated concentration (mean ± SD)” value (freeze–thaw (3 cycles), nominal concentration 3 μg/ml) is 2.960 ± 0.140 µg/mL; the “Calculated concentration (mean ± SD)” value (freeze–thaw (3 cycles), nominal concentration 30 μg/ml) was 29.959 ± 0.417 µg/mL; the “Calculated concentration (mean ± SD)” value (low temperature (4°C) 12 h, nominal concentration 0.3 μg/ml) was 0.294 ± 0.012 µg/mL; the “Calculated concentration (mean ± SD)” value (low temperature (4°C) 12 h, nominal concentration 3 μg/ml) was 3.055 ± 0.105 µg/mL; the “Calculated concentration (mean ± SD)” value (low temperature (4°C) 12 h, nominal concentration 30 μg/ml) is 29.844 ± 0.102 µg/mL. The “Calculated concentration (mean ± SD)” value reads like this: (short term (room temp) 6 h, nominal concentration 0.3 μg/ml) 0.293 ± 0.011 µg/mL; (short term (room temp) 6 h, nominal concentration 3 μg/ml) 3.098 ± 0.056 µg/mL; (short term (room temp) 6 h, nominal concentration 30 μg/ml) 30.608 ± 0.405 µg/mL.
